# Laboratory results from PubChem BioAssay AID1626 (SRMLSC, 2009).
# Test system: M. tuberculosis H37Rv growth inhibition
# Test: M. tuberculosis H37Rv growth inhibitors, H37Rv strain (AID 1626)
# Conditions: for IC90: measured here: IC90 against H37Rv; for CC50: measured here: Vero cell cytotoxicity
Compound,IC50 [µM],IC90 [µM],CC50 [µM]
O=C1c2cccc3c([N+](=O)[O-])ccc(c23)C(=O)N1c1ccccn1,7.34,10.5,12.2
Cc1ccc(CNCc2cc3c(C(C)(C)C)nn(-c4ccccc4)c3[nH]c2=O)cc1,8.33,11,> 40
CCOC(=O)c1ccc(NC(=O)C2CC2)cc1,28.5,> 100,–
COc1ccc(CCNC(=O)c2c(N)n(CCN3CCOCC3)c3nc4ccccc4nc23)cc1,11.3,19.1,> 40
Cc1ccc(Oc2cc(NC(=O)CCCn3nc([N+](=O)[O-])cc3C)cc([N+](=O)[O-])c2)cc1,12.1,13.6,> 40
COc1ccc(Cn2c(SCc3ccc(C)cc3)nc3cc(OC)c(OC)cc3c2=N)cc1Cl,2.5,3.09,3.1
Cc1ccc(C(=O)Nc2nc(-c3ccccn3)cs2)o1,2.56,6.19,> 40
CCc1nnc(NC(=O)c2cccc(C(=O)Nc3nnc(CC)s3)n2)s1,–,1.09,3.62
CCOc1ccc(NCc2nnc(SCC(=O)Nc3cc(C)on3)n2-c2ccc(OC)cc2)cc1,35.3,> 100,–
O=C(CNC(=O)/C(=C/c1ccccc1)NC(=O)c1ccc(Br)cc1)OCc1ccccc1,4.09,6.63,15.3
CCOc1ccc2c3c(c(=O)oc2c1OCC)CCCC3,7.11,12.8,–
CCOc1ccc(N=Cc2c(O)n(-c3cccc(C)n3)c(=O)c3ccccc23)cc1,14.7,> 100,–
CCCOC(=O)c1ccc(NC(=O)Oc2ccccc2)cc1,4.53,> 100,–
O=C(Nc1ccc(Oc2ccccc2)cc1)C1CC1,14,> 100,> 40
CCn1c(NC(=O)c2nn(C)cc2Br)nc2ccccc21,6.62,13.2,> 40
OCCN1CCN(CC(O)COc2ccc(C34CC5CC(CC(C5)C3)C4)cc2)CC1 (stereo not drawn),9.56,15.2,9.85
C/C(=C\C(=O)c1ccncc1)Nc1ccccc1O,< 0.195,28.2,> 40
O=C1N=C(N2CCOCC2)S/C1=C/c1ccc(-c2ccc(F)cc2)o1,–,> 100,–
CCOC(=O)c1cnn(-c2nc3c(C)cccc3s2)c1C(F)(F)F,54.6,> 100,> 40
CCOC(=O)c1ccc(NC(=O)CSc2nnc(COc3ccccc3OC)n2C)cc1,–,> 100,–

Compound,IC50 [µM],IC90 [µM],CC50 [µM]
Cc1ccccc1/C=c1\s/c(=C\C(=O)C(C)(C)C)[nH]c1=O,52.8,> 100,17.2
O=C(CSc1nnc(NC(=O)c2ccccc2Cl)s1)Nc1ccc2c(c1)oc1ccccc12,–,–,> 40
COc1ccc2cc(C(=O)C3CCCN(Cc4cnc(C)s4)C3)ccc2c1 (stereo not drawn),13.6,> 100,–
Cc1ccc2c(c1)c1c3n2CCN=C3CCC1,7.43,15.8,–
O=C(Nc1nccs1)c1cn(-c2ccccc2)nc1-c1ccccc1,–,> 100,> 40
COc1cc(/C=C/c2ccc3c(Br)cc(Br)c(O)c3n2)ccc1O,< 0.195,0.345,14.5
CCc1nc(N2CCCC(C)C2)c2oc3ccccc3c2n1 (stereo not drawn),17,23.8,> 40
CCCC(=O)N1CCN(c2ccc(NC(=O)c3ccc([N+](=O)[O-])o3)cc2Cl)CC1,< 0.195,< 0.195,1.8
Cc1ccc(NC(NC(=O)c2cccs2)C(Cl)(Cl)Cl)cc1C (stereo not drawn),24.3,> 100,> 40
Cc1nn2c(N3CCN(C)CC3)cc(C(C)(C)C)nc2c1-c1ccccc1,3.03,4.55,25.3
CCOC(=O)c1cc(-c2csc(COc3ccc(Cl)cc3)n2)on1,< 0.195,2.41,–
CCOc1ccc2nc(NC(=O)C(CC)Sc3nc(C)cc(=O)[nH]3)sc2c1 (stereo not drawn),35.7,> 100,> 40
CC(C)(C)c1cc(NCc2ccccn2)n2ncc(-c3ccc(Cl)cc3)c2n1,0.655,6.15,> 40
Cc1ccc(OCCCc2c(C)n[nH]c2C)cc1,16.8,> 100,–
CCOC(=O)c1ccc(NC(=O)CCc2c(C)nc3ncnn3c2C)cc1,–,> 100,–
O=C1c2cc([N+](=O)[O-])cc3cc([N+](=O)[O-])cc(c23)C(=O)N1c1ccccn1,2.91,3.34,35.9
N#Cc1ccc(/C=C/C(=O)c2ccccc2)cc1,5.89,7.86,> 40
COc1ccc(CNCc2cn(-c3cccc(F)c3)nc2-c2ccc(C)o2)cc1,6.12,10.5,> 40
O=C(Nc1ccc(Cl)cc1)c1cc2c(cc1O)[nH]c1ccccc12,1.71,2.29,13.4
Cc1cc(C)n(-c2nc(Nc3ccccc3C)nc(-n3nc(C)cc3C)n2)n1,88.4,> 100,–

Compound,IC50 [µM],IC90 [µM],CC50 [µM]
Cc1ccc(NCCC(=O)c2cccs2)cc1Cl,34.6,> 100,–
O=C(O)/C=C/C(=O)Nc1ccc(-n2nccc2C(F)(F)F)cc1,–,> 100,–
CCOC(=O)c1ccc(N2C(=O)c3n[nH]c(-c4ccco4)c3C2c2ccc([N+](=O)[O-])cc2)cc1 (stereo not drawn),9.07,17,28
CCCCCCCCC/C(=N\O)c1ccccn1,1.55,1.68,13.2
Cc1ccc(Sc2cc(C)nc(-c3ccccn3)n2)cc1,2.26,15.7,10.8
O=C1CCC(=O)N1CNc1ccc(Oc2ccccc2)cc1,2.58,> 100,–
c1ccc(-c2cc3c(N4CCN(c5ccccc5)CC4)ncnc3s2)cc1,11.3,> 100,–
NC1=NC[C@H](CC2CCCCC2)N1CCc1cc(C(F)(F)F)cc(C(F)(F)F)c1,8.62,11,27.4
N#Cc1ccc(C(=O)Nc2nnc(-c3ccco3)o2)cc1,7.95,> 100,> 40
COC(=O)CSc1ccc2c(N)c(C(=O)OC)sc2c1,1.68,2.82,–
O=C(C1CCN(c2nnc(-n3cccc3)s2)CC1)N1CCc2ccccc2C1,0.701,0.937,–
Clc1ccc(OCCCNCc2ccccc2)c(Br)c1,23.2,25.1,> 40
Cc1nn(-c2ccc([N+](=O)[O-])cc2)c2c1C(c1ccc(OC(F)F)cc1)N1C(=N2)C(=O)Nc2ccccc21 (stereo not drawn),4.66,> 100,> 40
Cc1cc(=O)oc2cc(Oc3ccc([N+](=O)[O-])cc3C(F)(F)F)ccc12,12.2,> 100,–
COc1ccc2nc(NC(=O)c3cnccn3)sc2c1,–,–,> 40
N=C1SCC(=O)N1c1ncc(Cc2ccccc2Cl)s1,< 0.391,15.9,> 40
Nc1ncnc(Oc2cccc3cccnc23)c1[N+](=O)[O-],6.19,6.94,37.1
CCOc1ccc(NC2c3ccccc3C(=O)N2Cc2ccco2)cc1 (stereo not drawn),19.1,> 100,–
